Results reported in patent US11440898B2, “Isoquinoline compounds, methods for their preparation, and therapeutic uses thereof in conditions associated with the alteration of the activity of beta galactosidase” (Minoryx Therapeutics S.L., priority 2016, dated 2022).

target: T1, mutated beta-galactosidase (p.R60H canine GLB1) in GM11473 fibroblasts (Canis lupus familiaris, UniProt Q9TRY9, R60H); experiment: Enhancement of β-galactosidase activity measured in GM1 fibroblasts (GM11473), 4-MU-β-D-galactopyranoside substrate; type: cell-based; parameters: key: Increase in comparison with non-treated of >2.5 fold is shown as A; Increase in comparison with non-treated of >1.7-2.5 fold is shown as B; Increase in comparison with non-treated of 1.2-1.7 fold is shown as C; D means that no increase compared with non-treated cells was detected in this method; settings: increase in β-galactosidase enzyme activity vs non-treated cells, concentrations between 6 and 50 μM, 4 days incubation
T1 construct: host or cells: GM11473 canine GM1 gangliosidosis fibroblasts
T1 sequence (Q9TRY9 30-668 R60H): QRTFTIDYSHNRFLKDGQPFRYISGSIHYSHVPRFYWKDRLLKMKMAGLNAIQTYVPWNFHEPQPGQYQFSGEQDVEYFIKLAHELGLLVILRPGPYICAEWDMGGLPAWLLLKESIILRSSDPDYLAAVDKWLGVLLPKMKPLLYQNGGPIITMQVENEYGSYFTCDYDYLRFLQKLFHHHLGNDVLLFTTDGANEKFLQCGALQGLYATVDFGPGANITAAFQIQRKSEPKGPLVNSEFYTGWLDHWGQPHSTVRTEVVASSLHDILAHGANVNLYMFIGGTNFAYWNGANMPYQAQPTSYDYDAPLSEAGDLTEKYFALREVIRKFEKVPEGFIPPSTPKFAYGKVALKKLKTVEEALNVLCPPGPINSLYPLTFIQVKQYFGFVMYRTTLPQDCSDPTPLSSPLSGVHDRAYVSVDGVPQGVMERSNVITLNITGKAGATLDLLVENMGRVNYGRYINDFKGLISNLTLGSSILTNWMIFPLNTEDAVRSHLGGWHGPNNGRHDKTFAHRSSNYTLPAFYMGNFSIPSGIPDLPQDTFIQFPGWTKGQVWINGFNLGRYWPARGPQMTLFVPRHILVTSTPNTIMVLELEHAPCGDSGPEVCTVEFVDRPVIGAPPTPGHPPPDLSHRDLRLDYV
Protocol: The capacity of the Compounds of the Disclosure to enhance mutated beta-galactosidase activity levels in GM1 fibroblasts was assayed as follows.
Fibroblasts homozygous for a GM1 gangliosidosis missense mutation (GM11473) (canine fibroblasts homozygous for the GM1 gangliosidosis missense mutation p.R60H equivalent to human p.R59H mutation) were purchased from Coriell Institute for Medical Research (Camden, N.J., USA).
Fibroblasts were seeded at 4×10^4 cells per well in 12-well cell culture plates in Dulbecco's Modified Eagle's Media (DMEM) supplemented with 10% of fetal bovine serum (FBS), 1% penicillin/streptomycin (P/S) (Thermo Fisher Scientific, Waltham, Mass., USA) and incubated at 37° C., 5% CO2 overnight for cell attachment. Subsequently, cells were incubated in the absence or presence of the compounds at the desired concentration for 4 days. After incubation, cells were washed twice with phosphate-buffered saline (“PBS”) and detached using Trypsin-EDTA solution (Sigma Aldrich, St. Louis, Mo., USA) to prepare cell pellets. The pellets were stored at −80° C. until activity assays were performed.
β-Galactosidase activity in cell lysates was measured by using 4-Methylumbelliferyl-β-D-galactopyranoside substrate (Sigma Aldrich, St. Louis, Mo., USA). Briefly, lysates were resuspended in 200 μL of 0.9% NaCl containing 0.01% triton X-100 lysis buffer to promote membrane disruption. The cell suspension was sonicated and centrifuged to remove insoluble materials. Then, lysates were mixed with 4-MU-β-D-galactopyranoside in 100 mM citrate buffer (pH=4) and 100 mM NaCl for 60 min at 37° C. The reaction was terminated by adding 100 mM glycine-NaOH buffer (pH=10.7). The liberated 4-MU was measured on a GloMax Discover plate reader (Promega, Madison, Wis., USA) with excitation at 340 nm and emission at 460 nm. Protein quantification was determined using Pierce BCA Protein Assay Kit (Thermo Fisher Scientific, Waltham, Mass., USA). Measurements were interpolated in a 4-MU standard curve and normalized by protein quantity. Enzyme activities were expressed in treated cells as X-fold increase in comparison with non-treated cells (X=1 represents no enhancement).
The capacity of the Compounds of the Disclosure to produce an increase in β-galactosidase enzyme activity in canine GM1 fibroblasts bearing p.R60H canine GLB1 mutation at concentrations between 6 and 50 μM is denoted as follows: • Increase in comparison with non-treated of >2.5 fold is shown as A. • Increase in comparison with non-treated of >1.7-2.5 fold is shown as B. • Increase in comparison with non-treated of 1.2-1.7 fold is shown as C. • D means that no increase compared with non-treated cells was detected in this method. • ND means “not determined.”

Row | Structure (SMILES) | Activity in GM11473 fibroblasts
1 | O=C(NCc1ccc2c(c1)OCCO2)c1cccc(Nc2nccc3ccc(Cl)cc23)c1 [Example 3, 3-((7-Chloroisoquinolin-1-yl)amino)-N-((2,3-dihydrobenzo[b][1,4]dioxin-6-yl)methyl)benzamide] | C (Increase in comparison with non-treated of 1.2-1.7 fold is shown as C)
2 | COc1ccc2ccnc(Nc3ccc(C(=O)NC4CCc5ccccc5C4)nc3)c2c1 (stereo not shown) [Example 45, 5-((7-Methoxyisoquinolin-1-yl)amino)-N-(1,2,3,4-tetrahydronaphthalen-2-yl)picolinamide] | C (Increase in comparison with non-treated of 1.2-1.7 fold is shown as C)
3 | COc1ccc(CNC(=O)c2ccc(Nc3nccc4ccc(Cl)cc34)cn2)cc1 [Example 30, 5-((7-Chloroisoquinolin-1-yl)amino)-N-(4-methoxybenzyl)picolinamide] | B (Increase in comparison with non-treated of >1.7-2.5 fold is shown as B)
4 | COc1cccc(CNC(=O)c2cc(Nc3nccc4ccc(Cl)cc34)ccn2)c1 [Example 11, 4-((7-Chloroisoquinolin-1-yl)amino)-N-(3-methoxybenzyl)picolinamide] | B (Increase in comparison with non-treated of >1.7-2.5 fold is shown as B)
5 | O=C(NCc1ccc2nsnc2c1)c1cc(Nc2nccc3ccc(Cl)cc23)ccn1 [Example 13, N-(benzo[c][1,2,5]thiadiazol-5-ylmethyl)-4-((7-chloroisoquinolin-1-yl)amino)picolinamide] | D
6 | O=C(NCc1ccc2c(c1)OCCO2)c1ccc(Nc2nccc3ccc(Cl)cc23)nc1 [Example 54, 6-((7-Chloroisoquinolin-1-yl)amino)-N-((2,3-dihydrobenzo[b][1,4]dioxin-6-yl)methyl)nicotinamide] | C (Increase in comparison with non-treated of 1.2-1.7 fold is shown as C)
7 | O=C(NCc1ccccc1)c1cc(Nc2nccc3ccc(Cl)cc23)ccn1 [Example 9, N-benzyl-4-((7-chloroisoquinolin-1-yl)amino)picolinamide] | B (Increase in comparison with non-treated of >1.7-2.5 fold is shown as B)
8 | O=C(NC1CCc2ccccc2C1)c1ccc(Nc2nccc3ccc(Cl)cc23)nc1 (stereo not shown) [Example 60, 6-((7-Chloroisoquinolin-1-yl)amino)-N-(1,2,3,4-tetrahydronaphthalen-2-yl)nicotinamide] | C (Increase in comparison with non-treated of 1.2-1.7 fold is shown as C)
9 | O=C(NCc1ccc2c(c1)OCO2)c1ccc(Nc2nccc3ccc(Cl)cc23)cn1 [Example 37, N-(benzo[d][1,3]dioxol-5-ylmethyl)-5-((7-chloroisoquinolin-1-yl)amino)picolinamide] | D
10 | COc1ccc2ccnc(Nc3ccc(C(=O)NCC4CCc5ccccc5C4)nc3)c2c1 (stereo not shown) [Example 47, 5-((7-Methoxyisoquinolin-1-yl)amino)-N-((1,2,3,4-tetrahydronaphthalen-2-yl)methyl)picolinamide] | B (Increase in comparison with non-treated of >1.7-2.5 fold is shown as B)
11 | N#Cc1ccc2ccnc(Nc3ccc(C(=O)NCc4ccc5nsnc5c4)nc3)c2c1 [Example 50, N-(benzo[c][1,2,5]thiadiazol-5-ylmethyl)-5-((7-cyanoisoquinolin-1-yl)amino)picolinamide] | C (Increase in comparison with non-treated of 1.2-1.7 fold is shown as C)
12 | O=C(NCC(c1cccnc1)N1CCCC1)c1ccc(Nc2nccc3ccc(Cl)cc23)nc1 (stereo not shown) [Example 53, 6-((7-Chloroisoquinolin-1-yl)amino)-N-(2-(pyridin-3-yl)-2-(pyrrolidin-1-yl)ethyl)nicotinamide] | C (Increase in comparison with non-treated of 1.2-1.7 fold is shown as C)
13 | O=C(NCc1ccc2nsnc2c1)c1ccc(Nc2nccc3ccc(Cl)cc23)nc1 [Example 59, N-(benzo[c][1,2,5]thiadiazol-5-ylmethyl)-6-((7-chloroisoquinolin-1-yl)amino)nicotinamide] | C (Increase in comparison with non-treated of 1.2-1.7 fold is shown as C)
14 | O=C(NCc1ccc2c(c1)OCCO2)c1cc(Nc2nccc3ccc(Cl)cc23)ccn1 [Example 8, 4-((7-Chloroisoquinolin-1-yl)amino)-N-((2,3-dihydrobenzo[b][1,4]dioxin-6-yl)methyl)picolinamide] | B (Increase in comparison with non-treated of >1.7-2.5 fold is shown as B)
15 | O=S(=O)(NC1CCc2ccccc2C1)c1ccc(Nc2nccc3ccc(Cl)cc23)cc1 (stereo not shown) [Example 77, 4-((7-Chloroisoquinolin-1-yl)amino)-N-(1,2,3,4-tetrahydronaphthalen-2-yl)benzenesulfonamide] | A (Increase in comparison with non-treated of >2.5 fold is shown as A)
16 | Cn1nnc2cc(CNS(=O)(=O)c3cccc(Nc4nccc5ccc(Cl)cc45)c3)ccc21 [Example 71, 3-((7-Chloroisoquinolin-1-yl)amino)-N-((1-methyl-1H-benzo[d][1,2,3]triazol-5-yl)methyl)benzenesulfonamide] | C (Increase in comparison with non-treated of 1.2-1.7 fold is shown as C)
17 | O=S(=O)(NCc1ccc2c(c1)OCCO2)c1cccc(Nc2nccc3ccc(Cl)cc23)c1 [Example 69, 3-((7-Chloroisoquinolin-1-yl)amino)-N-((2,3-dihydrobenzo[b][1,4]dioxin-6-yl)methyl)benzenesulfonamide] | D
18 | O=C(NCC1CCc2ccccc2C1)c1cc(Nc2nccc3ccc(Cl)cc23)ccn1 (stereo not shown) [Example 20, 4-((7-Chloroisoquinolin-1-yl)amino)-N-((1,2,3,4-tetrahydronaphthalen-2-yl)methyl)picolinamide] | B (Increase in comparison with non-treated of >1.7-2.5 fold is shown as B)
19 | O=C(NCc1ccc2c(c1)OCCO2)c1ccc(Nc2nccc3ccc(Cl)cc23)cn1 [Example 28, 5-((7-Chloroisoquinolin-1-yl)amino)-N-((2,3-dihydrobenzo[b][1,4]dioxin-6-yl)methyl)picolinamide] | B (Increase in comparison with non-treated of >1.7-2.5 fold is shown as B)
20 | O=C(NCc1ccc2c(c1)OCCCO2)c1cc(Nc2nccc3ccc(Cl)cc23)ccn1 [Example 15, 4-((7-Chloroisoquinolin-1-yl)amino)-N-((3,4-dihydro-2H-benzo[b][1,4]dioxepin-7-yl)methyl)picolinamide] | D
21 | COc1ccc(CNC(=O)c2ccc(Nc3nccc4ccc(Cl)cc34)nc2)cc1 [Example 56, 6-((7-Chloroisoquinolin-1-yl)amino)-N-(4-methoxybenzyl)nicotinamide] | D
22 | O=C(NCc1ccc2c(c1)OCO2)c1cc(Nc2nccc3ccc(Cl)cc23)ccn1 [Example 17, N-(benzo[d][1,3]dioxol-5-ylmethyl)-4-((7-chloroisoquinolin-1-yl)amino)picolinamide] | B (Increase in comparison with non-treated of >1.7-2.5 fold is shown as B)
